From patent US10221163B2 (priority 2015, dated 2019)
Where two headings read alike, the source gives them in different places.

Tests used:
[1] = tested on: Pseudomonas aeruginosa MB9798 vs MB9799
Outline: (§1)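 P. aeruginosa PAO1-derived IMP-1 strains, efflux+ MB9798 and efflux− MB9799, tested by standard microbroth MIC with imipenem and/or ceftazidime fixed, usually at CLSI breakpoint, plus fixed class A/C β-lactamase inhibitor against AmpC. Inhibitor titrated; concentration restoring susceptibility recorded; MB9798/MB9799 fold difference indicates efflux.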

IMP-1 = IMP-1 (Serratia marcescens, UniProt P52699); assay: biochemical; assay type: biochemical; settings: CCF2-FA substrate, 2 pM enzyme, 2 hours at 25° C.
Outline: (§2)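 Class B activity is measured in the presence of compound by fluorescence with CCF2-FA after a 2-hour incubation at 25° C. IC50 is taken from a 4-parameter fit of semi-logarithmic dose-response data.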

NDM-1 = NDM-1 (Klebsiella pneumoniae, UniProt C7C422); assay: biochemical; assay type: biochemical; settings: fluorescence assay, CCF2-FA substrate, 1 pM enzyme, 2 hours at 25° C.; read-out: NDM-1 IC50
Outline: as §2

VIM-1 = VIM-1 (Pseudomonas aeruginosa (strain ATCC 15692 / DSM 22644 / CIP 104116 / JCM 14847 / LMG 12228 / 1C / PRS 101 / PAO1), UniProt A0A0F7KYQ8); assay: biochemical; settings: CCF2-FA substrate, 30 pM enzyme, 2 hours at 25° C.
Outline: as §2

[2] = tested on: Serratia marcescens expressing IMP-1 (CL5741); assay type: cell-based; settings: IMP-1 strain CL5741, with imipenem 1 μg/ml, 95% inhibition of growth
Outline: (§3)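 Imipenem 1 μg/ml + inhibitor; MBL-expressing clinical strains in 1.1×CAMHB, inoculum from saline suspension diluted 1:100; 35° C, 22–24 h; absorbance read-out.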

[3] = tested on: Escherichia coli expressing NDM-1 (CLB30005, CLB30016); assay type: cell-based; settings: NDM-1 strain, with imipenem 1 μg/ml, 95% inhibition of growth
Outline: as §3

[4] = tested on: Klebsiella pneumoniae expressing VIM-1 (IHMA599644); assay type: cell-based; settings: VIM-1 strain IHMA599644, with imipenem 1 μg/ml, 95% inhibition of growth
Outline: as §3

[5] = tested on: Pseudomonas aeruginosa efflux+ (MB9798), IMP-1; assay type: cell-based; design: Concentration of metallo-β-lactamase inhibitor which restores susceptibility of efflux + (MB9798) strain to imipenem: unit not given here; settings: C, D serine β-lactamase inhibitor closely related to relebactam; for P. aeruginosa expressing IMP-1, efflux + (MB9798) MITC95: concentration restoring susceptibility to imipenem at 2 μg/mL in the presence of a class A; for Concentration of metallo-β-lactamase inhibitor which restores susceptibility of efflux + (MB9798) strain to imipenem: imipenem at 2 μg/mL, in the presence of a class A
Outline: as §1

[6] = tested on: Pseudomonas aeruginosa efflux− (MB9799), IMP-1; assay type: cell-based; settings: C, D serine β-lactamase inhibitor closely related to relebactam; for P. aeruginosa expressing IMP-1, efflux − (MB9799) MITC95: concentration restoring susceptibility to imipenem at 2 μg/mL in the presence of a class A; for Concentration of metallo-β-lactamase inhibitor which restores susceptibility of efflux − (MB9799) strain to imipenem: imipenem at 2 μg/mL, in the presence of a class A
Outline: as §1

[7] = ratio MITC95 PA_9798/MITC95 PA_9799
[8] = fluorescence assay, read-out: IMP-1 IC50
[9] = fluorescence assay, read-out: VIM-1 IC50
[10] = fold difference between efflux+ (MB9798) and efflux− (MB9799) strains, imipenem at 2 μg/mL

Sequence of NDM-1 (C7C422 whole entry, looked up, species assumed): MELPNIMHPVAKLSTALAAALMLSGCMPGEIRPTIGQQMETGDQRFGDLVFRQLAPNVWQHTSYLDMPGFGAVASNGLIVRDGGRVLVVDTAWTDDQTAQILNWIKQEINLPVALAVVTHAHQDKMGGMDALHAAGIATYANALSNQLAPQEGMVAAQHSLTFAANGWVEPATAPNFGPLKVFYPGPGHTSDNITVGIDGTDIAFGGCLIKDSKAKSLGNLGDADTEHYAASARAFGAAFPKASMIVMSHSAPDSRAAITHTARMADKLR
Sequence of IMP-1 (P52699 whole entry, looked up, species assumed): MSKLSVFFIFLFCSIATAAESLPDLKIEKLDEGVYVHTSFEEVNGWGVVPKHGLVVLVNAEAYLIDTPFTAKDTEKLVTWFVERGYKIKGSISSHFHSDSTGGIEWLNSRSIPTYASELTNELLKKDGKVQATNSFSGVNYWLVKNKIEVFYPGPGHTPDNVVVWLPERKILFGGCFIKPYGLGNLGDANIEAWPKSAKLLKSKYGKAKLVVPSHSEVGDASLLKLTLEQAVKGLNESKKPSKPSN

SMILES | Efflux ratio [1, 7] | IC50 (IMP-1; [8]) [nM] | IC50 (NDM-1) [nM] | IC50 (VIM-1; [9]) [nM] | Serratia marcescens MITC95 [2] [µM] | Escherichia coli MITC95 [3] [µM] | Klebsiella pneumoniae MITC95 [4] [µM] | P. aeruginosa expressing IMP-1, efflux + (MB9798) MITC95 [5] [µM] | P. aeruginosa expressing IMP-1, efflux − (MB9799) MITC95 [6] [µM] | IC50 (VIM-1; VIM-1 IC50, fluorescence assay) [nM] | Efflux ratio [1, 10] | IC50 (IMP-1; IMP-1 IC50, fluorescence assay) [nM] | Concentration of metallo-β-lactamase inhibitor which restores susceptibility of efflux + (MB9798) strain to imipenem [5] | Concentration of metallo-β-lactamase inhibitor which restores susceptibility of efflux − (MB9799) strain to imipenem [6]
C[C@H](CN)NS(=O)(=O)c1ccc(-c2cccn3ccnc23)c(-c2nn[nH]n2)c1S(N)(=O)=O [Example 384, (R)—N1-(1-aminopropan-2-yl)-4-(imidazo[1,2-a]pyridin-8-yl)-3-(2H -tetrazol-5-yl) benzene-1,2-disulfonamide] | 0.50 | 0.0539 | 0.0233 | 0.0539 | 3.125 | 1.563 | 3.125 | 0.7813 | 1.563 | – | – | – | – | –
NCc1nc2c(-c3ccc(S(=O)(=O)NC(CN)CN)c(S(N)(=O)=O)c3-c3nn[nH]n3)cccc2[nH]1 [Example 385, 4-(2-(Aminomethyl)-1H-benzo[d]imidazol-4-yl)-N1-(1,3-diaminopropan-2-yl)-3-(2H-tetrazol-5-yl)benzene-1,2-disulfonamide] | 1.00 | 0.782 | 0.111 | 0.13 | 0.7813 | 0.7813 | 1.563 | 0.7813 | 0.7813 | – | – | – | – | –
NCC(CN)NS(=O)(=O)c1ccc(-c2cccn3ccnc23)c(-c2nn[nH]n2)c1S(N)(=O)=O [Example 386, N1-(1,3-diaminopropan-2-yl)-4-(imidazo[1,2-c]pyridin-8-yl)-3-(2H-tetrazol-5-yl) benzene-1,2-disulfonamide] | 1.00 | 0.141 | 0.133 | – | 1.563 | 0.9766 | 3.125 | 1.563 | 1.563 | 0.168 | – | – | – | –
C[C@@H](CN)NS(=O)(=O)c1ccc(-c2cccc3sc(N)nc23)c(-c2nn[nH]n2)c1S(N)(=O)=O [Example 389, 4-(2-amino-1,3-benzothiazol-4-yl)-N^1-[(1S)-2-amino-1-methylethyl]-3-(2H-tetrazol-5-yl)benzene-1,2-disulfonamide] | – | – | 0.289 | – | 3.125 | 3.125 | 3.125 | – | – | 0.744 | 1.00 | 1.81 | 1.563 | 1.563
C[C@@H](N)CNS(=O)(=O)c1ccc(-c2cccc3sc(N)nc23)c(-c2nn[nH]n2)c1S(N)(=O)=O [Example 390, 4-(2-amino-1,3-benzothiazol-4-yl)-N^1-[(2R)-2-aminopropyl]-3-(2H-tetrazol-5-yl)benzene-1,2-disulfonamide] | – | – | 0.0605 | – | 1.563 | 3.125 | 3.125 | – | – | 0.33 | 0.50 | 0.341 | 0.7813 | 1.563
C[N+](C)(C)CCNS(=O)(=O)c1ccc(-c2cccc3sc(N)nc23)c(-c2nnn[nH]2)c1S(N)(=O)=O.O=C([O-])C(F)(F)F [Example 391, 2-({[4-(2-amino-1,3-benzothiazol-4-yl)-2-sulfamoyl-3-(1H-tetrazol-5-yl)phenyl]sulfonyl}amino)-N,N,N-trimethylethanaminium trifluoroacetate] | – | – | 0.028 | 0.0965 | 3.125 | 3.125 | 6.25 | – | – | – | 1.00 | 0.209 | 1.563 | 1.563
C[C@H](CN)NS(=O)(=O)c1ccc(-c2ccc(N)nc2)c(-c2nn[nH]n2)c1S(N)(=O)=O [Example 393, (R)—N^1-(1-aminopropan-2-yl)-4-(6-aminopyridin-3-yl)-3-(2H-tetrazol-5-yl)benzene-1,2-disulfonamide] | – | 0.0629 | 0.0219 | 0.0454 | 1.042 | 0.651 | 2.083 | – | – | – | 0.75 | – | 0.7813 | 1.042
C[C@@H](CN)NS(=O)(=O)c1ccc(-c2ccc(N)nc2)c(-c2nn[nH]n2)c1S(N)(=O)=O [Example 394] | – | 2 | 1.89 | 1.24 | 1.563 | 0.3906 | 3.125 | – | – | – | 2.00 | – | 3.125 | 1.563
C[C@H](CN)NS(=O)(=O)c1ccc(-c2cccc3c2nc(N)n3C)c(-c2nn[nH]n2)c1S(N)(=O)=O [Example 395] | – | 0.156 | 0.0315 | – | 1.563 | 0.3906 | 1.563 | – | – | 0.108 | 2.00 | – | 1.563 | 0.7813
C[C@@H](CN)NS(=O)(=O)c1ccc(-c2ccnc(N)c2)c(-c2nn[nH]n2)c1S(N)(=O)=O [Example 398] | – | 7.45 | 2.54 | 0.939 | 1.563 | 3.125 | 3.125 | – | – | – | 4.00 | – | 6.25 | 1.563
NCCNS(=O)(=O)c1ccc(-c2ccnc(N)c2)c(-c2nn[nH]n2)c1S(N)(=O)=O [Example 400] | – | 1.42 | 0.598 | 0.244 | 0.3906 | 0.1953 | 1.563 | – | – | – | 2.00 | – | 1.563 | 0.7813
NCCNS(=O)(=O)c1ccc(-c2ccc3nccn3c2)c(-c2nn[nH]n2)c1S(N)(=O)=O [Example 401] | – | 0.483 | 0.197 | 0.0897 | 0.3906 | 0.7813 | 1.563 | – | – | – | 2.00 | – | 1.563 | 0.7813
